Results reported in patent US12059422B2 (MEI Pharma, Inc., priority 2011, dated 2024).

Assays:
PI3Kα = PI3Kα (Homo sapiens, UniProt P42336); assay: ELISA assay for PI3Kα: in-cell ELISA, phosphorylation of AKT (Thr308) in MDA-MB-453 cells; type: cell-based; conditions: cellular, pAKT (Thr308), IGF-1 stimulation, read-out: IC50 p110α
Method: PI3K alpha (PI3Kα) activity was determined by measuring the phosphorylation of AKT (Thr308) using an in-cell ELISA assay. MDA-MB-453 (breast carcinoma) cells were obtained from ATCC (ATCC #HTB-131). Growth medium was DMEM (CellGro #CV-10-013-CV) supplemented with 10% fetal bovine serum, 100 IU/mL penicillin, 100 μg/mL streptomycin, and 1×MEM non-essential amino acids. Phosphate buffered saline (PBS) contained 2.7 M NaCl, 54 mM KCl, 86 mM […] (dibasic, anhydrous), and 28 mM […] (monobasic, anhydrous) at pH 7.2. Stimulation mixture (10×) was 1000 ng/mL LONG® R^3 human IGF-1 (Sigma #I1271) diluted in serum-free DMEM medium (CellGro #CV-10-013-CV). Compounds for testing were dissolved and serially diluted in 100% DMSO (total of 10 concentrations), then diluted in serum-free DMEM to 2× final assay concentration. Fixative solution (2×) was 8% formaldehyde (Amresco #M134) diluted in PBS. Permeabilization solution was PBS supplemented with 0.1% Triton X-100. Blocking buffer was obtained from LiCor (LiCor #927-40000). Wash buffer was PBS supplemented with 0.1% Tween-20. Primary antibody solution was rabbit anti-pAKT^T308 monoclonal antibody (Cell Signaling #2965) and mouse anti-total S6 (Santa Cruz #74459) diluted 1:500 and 1:2000, respectively, in the blocking buffer. Secondary antibody solution was IRDye 800CW-conjugated goat anti-rabbit IgG (LiCor #926-32211) and IRDye 680LT-conjugated goat anti-mouse IgG (LiCor #926-68020) diluted 1:1000 and 1:2000, respectively, in the blocking buffer.
MDA-MB-453 cells were subcultured in growth medium and seeded into flat, clear bottom, 96-well plates (Corning #3904) at 40000 cells/well, then incubated overnight in a 5% CO2 incubator at 37° C. Growth medium in plates was replaced with 100 μL/well serum-free DMEM and incubated overnight at 37° C. in a 5% CO2 incubator. Fresh serum-free DMEM (50 μL/well) was added to plates. Compound treatment was performed by adding 50 μL/well of 2× compound mixture to plates and incubating for 1 hr at 37° C. and 5% CO2, after which 11 μL/well of 10× stimulation mixture was added and plates were incubated for 10 min at 37° C. and 5% CO2. Fixation was performed by adding 110 μL/well of 2× fixative solution to the plates and incubating for 20 min at room temperature. Permeabilization was performed by replacing fixation solution with 150 μL/well permeabilization solution and incubating for 10 min at room temperature. Permeabilization was repeated (for a total of 2 times). Permeabilization solution was replaced with 100 μL/well blocking buffer and plates were incubated for 1 hour at room temperature, after which 100 μL/well of primary antibody solution was added and plates were incubated overnight at 4° C. Plates were washed with wash buffer, after which 100 μL/well of secondary antibody solution was added to the plates and incubated in the dark for 1 hr at room temperature. Plates were washed with wash buffer, followed by a wash with PBS. After completely removing PBS, plates were scanned on the Licor Odyssey Imager. Images were quantified using Licor Odyssey application software. IC50 values were determined by curve fitting using a Collaborative Drug Discovery database (www.collaborativedrug.com).

PI3K gamma = molecular target: T1, PI3K gamma (Homo sapiens, UniProt P48736); assay: Luciferase-based luminescence assay (ADP Glo), PI3K gamma enzymatic activity; type: biochemical; conditions: inhibition of enzymatic activity, 25 μM ATP, read-out: IC50 p110γ
T1 construct: purchased Invitrogen Corp., Carlsbad, CA, USA
In short: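 Final enzyme 4.8 nM PI3K beta or 7.6 nM PI3K gamma, with 50 μM PIP2 and 25 μM ATP, 1 h in HEPES pH 7.5 buffer with MgCl2, EGTA, NaCl, CHAPS and DTT. ADP formed measured by ADP-Glo luminescence; IC50 from 10-point curve fits.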

PI3K alpha = molecular target: T2, PI3K alpha (Homo sapiens, UniProt P42336); assay: Luciferase-based luminescence assay (KinaseGlo), PI3K alpha enzymatic activity; type: biochemical; conditions: inhibition of enzymatic activity, 25 μM ATP, read-out: IC50 p110α
T2 construct: purchased Invitrogen Corp., Carlsbad, CA, USA
In short: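 KinaseGlo luminescence measured ATP remaining after PIP2 (50 μM) phosphorylation with 25 μM ATP in HEPES pH 7.5 buffer with CHAPS and DTT. Final enzyme was 1.65 nM alpha (1 h reaction) or 6.86 nM delta (2 h reaction). IC50 was curve-fitted from 10 concentrations.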

Chain of PI3Kα (P27986 2-724): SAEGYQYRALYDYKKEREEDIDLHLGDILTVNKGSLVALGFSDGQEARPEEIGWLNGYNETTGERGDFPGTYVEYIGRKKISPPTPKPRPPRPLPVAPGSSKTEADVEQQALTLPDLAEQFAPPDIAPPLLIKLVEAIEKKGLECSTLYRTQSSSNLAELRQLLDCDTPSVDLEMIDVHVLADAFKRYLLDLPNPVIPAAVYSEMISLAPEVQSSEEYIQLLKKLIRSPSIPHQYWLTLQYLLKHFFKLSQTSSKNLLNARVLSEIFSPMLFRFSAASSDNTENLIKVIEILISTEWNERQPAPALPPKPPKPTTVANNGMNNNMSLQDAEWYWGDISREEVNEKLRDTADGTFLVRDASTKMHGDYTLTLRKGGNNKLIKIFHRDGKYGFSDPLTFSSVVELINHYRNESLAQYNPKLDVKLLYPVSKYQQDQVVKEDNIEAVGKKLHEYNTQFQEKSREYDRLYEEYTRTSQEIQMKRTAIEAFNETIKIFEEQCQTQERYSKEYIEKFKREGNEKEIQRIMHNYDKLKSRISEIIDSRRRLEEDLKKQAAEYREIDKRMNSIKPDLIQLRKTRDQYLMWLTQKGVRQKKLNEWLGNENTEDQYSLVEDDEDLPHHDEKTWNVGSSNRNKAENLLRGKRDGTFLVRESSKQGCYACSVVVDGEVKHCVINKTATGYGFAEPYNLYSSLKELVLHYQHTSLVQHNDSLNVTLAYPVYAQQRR
Chain of PI3Kα (P42336 whole entry): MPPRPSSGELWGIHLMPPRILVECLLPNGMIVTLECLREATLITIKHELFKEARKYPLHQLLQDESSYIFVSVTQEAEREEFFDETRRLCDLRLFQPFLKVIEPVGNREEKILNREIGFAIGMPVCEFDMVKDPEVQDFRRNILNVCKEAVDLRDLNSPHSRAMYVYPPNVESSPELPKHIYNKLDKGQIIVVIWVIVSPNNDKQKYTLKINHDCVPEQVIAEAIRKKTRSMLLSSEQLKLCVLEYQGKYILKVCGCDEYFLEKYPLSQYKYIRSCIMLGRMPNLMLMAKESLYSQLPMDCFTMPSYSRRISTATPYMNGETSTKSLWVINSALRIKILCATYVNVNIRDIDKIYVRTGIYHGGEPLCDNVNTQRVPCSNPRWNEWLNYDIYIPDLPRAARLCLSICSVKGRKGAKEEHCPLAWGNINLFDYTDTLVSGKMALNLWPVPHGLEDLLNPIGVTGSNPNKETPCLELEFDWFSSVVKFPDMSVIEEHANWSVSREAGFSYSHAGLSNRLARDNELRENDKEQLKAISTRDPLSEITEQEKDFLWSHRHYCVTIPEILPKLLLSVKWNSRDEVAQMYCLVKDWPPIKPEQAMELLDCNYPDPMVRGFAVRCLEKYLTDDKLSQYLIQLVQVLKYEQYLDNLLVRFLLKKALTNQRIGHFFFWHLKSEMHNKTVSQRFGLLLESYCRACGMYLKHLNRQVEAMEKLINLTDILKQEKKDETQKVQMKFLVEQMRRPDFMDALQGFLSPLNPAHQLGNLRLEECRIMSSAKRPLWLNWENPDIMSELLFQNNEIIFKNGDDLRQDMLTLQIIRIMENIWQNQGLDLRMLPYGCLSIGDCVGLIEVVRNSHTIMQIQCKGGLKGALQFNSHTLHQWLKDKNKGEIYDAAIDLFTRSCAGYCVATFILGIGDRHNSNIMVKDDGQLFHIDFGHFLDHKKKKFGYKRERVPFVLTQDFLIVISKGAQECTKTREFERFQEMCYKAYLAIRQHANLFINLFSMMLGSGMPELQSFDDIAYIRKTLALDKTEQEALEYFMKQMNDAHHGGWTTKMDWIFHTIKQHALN
T1 sequence (P48736 whole entry, species assumed): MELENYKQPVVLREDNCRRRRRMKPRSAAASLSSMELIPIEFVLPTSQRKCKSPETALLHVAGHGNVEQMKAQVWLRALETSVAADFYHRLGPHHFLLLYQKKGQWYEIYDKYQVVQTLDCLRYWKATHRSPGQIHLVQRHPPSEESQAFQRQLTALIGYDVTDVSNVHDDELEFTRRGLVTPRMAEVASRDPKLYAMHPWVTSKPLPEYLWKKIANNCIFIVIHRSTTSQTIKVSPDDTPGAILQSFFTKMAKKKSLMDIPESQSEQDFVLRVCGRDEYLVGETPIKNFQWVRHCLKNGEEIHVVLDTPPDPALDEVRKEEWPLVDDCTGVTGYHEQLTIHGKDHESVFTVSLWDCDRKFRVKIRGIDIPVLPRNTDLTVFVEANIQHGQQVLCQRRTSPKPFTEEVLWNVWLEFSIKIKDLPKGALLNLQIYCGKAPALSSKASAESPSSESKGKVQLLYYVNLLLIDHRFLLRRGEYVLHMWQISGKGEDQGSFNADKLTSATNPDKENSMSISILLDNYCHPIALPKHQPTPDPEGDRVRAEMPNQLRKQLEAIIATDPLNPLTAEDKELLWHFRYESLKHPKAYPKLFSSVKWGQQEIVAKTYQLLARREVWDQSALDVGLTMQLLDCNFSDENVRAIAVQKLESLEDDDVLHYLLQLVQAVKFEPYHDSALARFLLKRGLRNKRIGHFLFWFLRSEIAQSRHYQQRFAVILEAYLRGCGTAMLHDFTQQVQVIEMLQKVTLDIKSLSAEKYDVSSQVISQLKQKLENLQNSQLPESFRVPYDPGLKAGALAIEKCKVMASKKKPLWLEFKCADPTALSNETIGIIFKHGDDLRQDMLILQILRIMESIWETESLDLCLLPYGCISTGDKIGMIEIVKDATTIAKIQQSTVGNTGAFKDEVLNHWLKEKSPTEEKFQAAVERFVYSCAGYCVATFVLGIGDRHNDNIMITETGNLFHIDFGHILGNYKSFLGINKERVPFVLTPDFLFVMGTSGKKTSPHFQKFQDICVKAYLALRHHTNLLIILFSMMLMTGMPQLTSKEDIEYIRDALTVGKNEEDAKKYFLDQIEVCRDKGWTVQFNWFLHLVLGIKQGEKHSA
T2 sequence (P42336 whole entry, species assumed): as the sequence (P42336 whole entry) above
T2 sequence (P27986 whole entry partner, species assumed): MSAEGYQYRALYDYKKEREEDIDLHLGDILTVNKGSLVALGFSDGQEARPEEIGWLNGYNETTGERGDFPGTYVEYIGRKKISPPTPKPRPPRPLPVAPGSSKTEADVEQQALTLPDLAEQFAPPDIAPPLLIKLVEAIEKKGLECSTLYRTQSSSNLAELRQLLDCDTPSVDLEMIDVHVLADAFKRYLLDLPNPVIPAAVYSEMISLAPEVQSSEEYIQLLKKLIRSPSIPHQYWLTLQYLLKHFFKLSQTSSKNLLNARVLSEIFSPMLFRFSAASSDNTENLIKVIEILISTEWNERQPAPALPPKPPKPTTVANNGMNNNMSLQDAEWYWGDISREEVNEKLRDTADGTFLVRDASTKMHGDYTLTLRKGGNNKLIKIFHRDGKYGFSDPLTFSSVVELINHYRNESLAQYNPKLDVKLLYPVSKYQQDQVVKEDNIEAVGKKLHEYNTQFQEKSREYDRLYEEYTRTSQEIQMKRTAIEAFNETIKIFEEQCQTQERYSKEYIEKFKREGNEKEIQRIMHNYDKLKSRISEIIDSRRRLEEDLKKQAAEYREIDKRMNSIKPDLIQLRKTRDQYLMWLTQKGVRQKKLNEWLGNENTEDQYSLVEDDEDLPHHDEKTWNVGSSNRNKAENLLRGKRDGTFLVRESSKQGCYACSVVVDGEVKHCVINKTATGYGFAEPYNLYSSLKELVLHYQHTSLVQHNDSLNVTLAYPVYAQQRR

Row | Structure (SMILES) | IC50 (PI3Kα) | IC50 (PI3K gamma) | IC50 (PI3K alpha)
1 | Cc1cc(-c2ccccc2CC(C)(C)Nc2nc(N3CCOCC3)nc(-n3c(C(F)F)nc4ccccc43)n2)ccn1 [Compound A43, 4-(2-(difluoromethyl)-1H-benzo[d]imidazol-1-yl)-N-(2-methyl-1-(2-(2-methylpyridin-4-yl)phenyl)propan-2-yl)-6-morpholino-1,3,5-triazin-2-amine] | > 500 nM | > 500 nM | 200 to 500 nM
2 | CC(C)(Cc1ccccc1-c1cn[nH]c1)Nc1nc(N2CCOCC2)nc(-n2c(C(F)F)nc3ccccc32)n1 [Compound A44, 4-(2-(difluoromethyl)-1H-benzo[d]imidazol-1-yl)-N-(1-(2-(1H-pyrazol-4-yl)phenyl)-2-methylpropan-2-yl)-6-morpholino-1,3,5-triazin-2-amine] | > 500 nM | 100 to 200 nM | 200 to 500 nM
3 | Cn1cc(-c2ccccc2CC(C)(C)Nc2nc(N3CCOCC3)nc(-n3c(C(F)F)nc4ccccc43)n2)cn1 [Compound A45, 4-(2-(difluoromethyl)-1H-benzo[d]imidazol-1-yl)-N-(2-methyl-1-(2-(1-methyl-1H-pyrazol-4-yl)phenyl)propan-2-yl)-6-morpholino-1,3,5-triazin-2-amine] | 200 to 500 nM | 200 to 500 nM | 100 to 200 nM
4 | Cn1nccc1-c1ccccc1CC(C)(C)Nc1nc(N2CCOCC2)nc(-n2c(C(F)F)nc3ccccc32)n1 [Compound A46, 4-(2-(difluoromethyl)-1H-benzo[d]imidazol-1-yl)-N-(2-methyl-1-(2-(1-methyl-1H-pyrazol-5-yl)phenyl)propan-2-yl)-6-morpholino-1,3,5-triazin-2-amine] | > 500 nM | > 500 nM | 200 to 500 nM
5 | Cc1cccc(CC(C)(C)Nc2nc(N3CCOCC3)nc(-n3c(C(F)F)nc4ccccc43)n2)c1 [Compound A49, 4-(2-(difluoromethyl)-1H-benzo[d]imidazol-1-yl)-N-(2-methyl-1-m-tolylpropan-2-yl)-6-morpholino-1,3,5-triazin-2-amine] | > 500 nM | 200 to 500 nM | > 500 nM
6 | COc1cc(CC(C)(C)Nc2nc(N3CCOCC3)nc(-n3c(C(F)F)nc4ccccc43)n2)ccc1F [Compound A50, 4-(2-(difluoromethyl)-1H-benzo[d]imidazol-1-yl)-N-(1-(4-fluoro-3-methoxyphenyl)-2-methylpropan-2-yl)-6-morpholino-1,3,5-triazin-2-amine] | > 500 nM | > 500 nM | > 500 nM
7 | CC(C)(Cc1ccccc1-c1ccccc1F)Nc1nc(N2CCOCC2)nc(-n2c(C(F)F)nc3ccccc32)n1 [Compound A59, 4-(2-(difluoromethyl)-1H-benzo[d]imidazol-1-yl)-N-(1-(2′-fluorobiphenyl-2-yl)-2-methylpropan-2-yl)-6-morpholino-1,3,5-triazin-2-amine] | > 500 nM | > 500 nM | > 500 nM
8 | CC(C)(Cc1ccccc1-c1cccnc1F)Nc1nc(N2CCOCC2)nc(-n2c(C(F)F)nc3ccccc32)n1 [Compound A62] | > 500 nM | > 500 nM | > 500 nM
9 | CC(C)(Cc1ccccc1-c1cncnc1)Nc1nc(N2CCOCC2)nc(-n2c(C(F)F)nc3ccccc32)n1 [Compound A63, 4-(2-(difluoromethyl)-1H-benzo[d]imidazol-1-yl)-N-(2-methyl-1-(2-(pyrimidin-5-yl)phenyl)propan-2-yl)-6-morpholino-1,3,5-triazin-2-amine] | > 500 nM | 200 to 500 nM | 200 to 500 nM
10 | CN1CCN(c2cc(-c3ccccc3CC(C)(C)Nc3nc(N4CCOCC4)nc(-n4c(C(F)F)nc5ccccc54)n3)ccn2)CC1 [Compound A64, 4-(2-(difluoromethyl)-1H-benzo[d]imidazol-1-yl)-N-(2-methyl-1-(2-(2-(4-methylpiperazin-1-yl)pyridin-4-yl)phenyl)propan-2-yl)-6-morpholino-1,3,5-triazin-2-amine] | > 500 nM | > 500 nM | > 500 nM
11 | CC(C)(Cc1ccccc1C1CCNCC1)Nc1nc(N2CCOCC2)nc(-n2c(C(F)F)nc3ccccc32)n1 [Compound A68, 4-(2-(difluoromethyl)-1H-benzo[d]imidazol-1-yl)-N-(2-methyl-1-(2-(piperidin-4-yl)phenyl)propan-2-yl)-6-morpholino-1,3,5-triazin-2-amine] | > 500 nM | > 500 nM | > 500 nM

Results, then the compound that gave them:

Row | IC50 (PI3Kα) | IC50 (PI3K gamma) | IC50 (PI3K alpha) | Structure (SMILES)
12 | > 500 nM | 200 to 500 nM | > 500 nM | CC(C)(Cc1ccc(F)cc1F)Nc1nc(N2CCOCC2)nc(-n2c(C(F)F)nc3ccccc32)n1 [Compound A51, 4-(2-(difluoromethyl)-1H-benzo[d]imidazol-1-yl)-N-(1-(2,4-difluorophenyl)-2-methylpropan-2-yl)-6-morpholino-1,3,5-triazin-2-amine]
13 | > 500 nM | ≤ 100 nM | > 500 nM | CC(C)(Cc1c(F)cccc1F)Nc1nc(N2CCOCC2)nc(-n2c(C(F)F)nc3ccccc32)n1 [Compound A52, 4-(2-(difluoromethyl)-1H-benzo[d]imidazol-1-yl)-N-(1-(2,6-difluorophenyl)-2-methylpropan-2-yl)-6-morpholino-1,3,5-triazin-2-amine]
14 | > 500 nM | > 500 nM | > 500 nM | Cc1ccccc1-c1ccccc1CC(C)(C)Nc1nc(N2CCOCC2)nc(-n2c(C(F)F)nc3ccccc32)n1 [Compound A60, 4-(2-(difluoromethyl)-1H-benzo[d]imidazol-1-yl)-N-(2-methyl-1-(2′-methylbiphenyl-2-yl)propan-2-yl)-6-morpholino-1,3,5-triazin-2-amine]
15 | > 500 nM | > 500 nM | > 500 nM | CC(C)(Cc1ccccc1-c1ccccc1Cl)Nc1nc(N2CCOCC2)nc(-n2c(C(F)F)nc3ccccc32)n1 [Compound A61, 4-(2-(difluoromethyl)-1H-benzo[d]imidazol-1-yl)-N-(1-(6′-chlorobiphenyl-2-yl)-2-methylpropan-2-yl)-6-morpholino-1,3,5-triazin-2-amine]
16 | > 500 nM | 100 to 200 nM | > 500 nM | CC(C)(Cc1ccccc1-c1cccc(CN2CCOCC2)c1)Nc1nc(N2CCOCC2)nc(-n2c(C(F)F)nc3ccccc32)n1 [Compound A65, 4-(2-(difluoromethyl)-1H-benzo[d]imidazol-1-yl)-N-(2-methyl-1-(3′-(morpholinomethyl)biphenyl-2-yl)propan-2-yl)-6-morpholino-1,3,5-triazin-2-amine]
17 | > 500 nM | > 500 nM | > 500 nM | COc1cccc(-c2ccccc2CC(C)(C)Nc2nc(N3CCOCC3)nc(-n3c(C(F)F)nc4ccccc43)n2)c1 [Compound A66, 4-(2-(difluoromethyl)-1H-benzo[d]imidazol-1-yl)-N-(1-(3′-methoxybiphenyl-2-yl)-2-methylpropan-2-yl)-6-morpholino-1,3,5-triazin-2-amine]
18 | > 500 nM | > 500 nM | > 500 nM | COc1ccc(-c2ccccc2CC(C)(C)Nc2nc(N3CCOCC3)nc(-n3c(C(F)F)nc4ccccc43)n2)cc1 [Compound A67, 4-(2-(difluoromethyl)-1H-benzo[d]imidazol-1-yl)-N-(1-(4′-methoxybiphenyl-2-yl)-2-methylpropan-2-yl)-6-morpholino-1,3,5-triazin-2-amine]
